Laboratory results: ChEMBL document CHEMBL1146766, “Synthesis of 3a,4-dihydro-3H-[1]benzopyrano[4,3-c]isoxazoles, displaying combined 5-HT uptake inhibiting and alpha2-adrenoceptor antagonistic activities. Part 2: Further exploration on the cinnamyl moiety” (Bioorg Med Chem Lett, 2004)

Columns and labels:
[1] = target: Adrenergic receptor alpha-2 (Rattus norvegicus) (UniProt P22086+P19328+P22909); assay: Inhibition ofmedetomidine-induced loss of righting, which evaluates the ability to block central alpha-2-adrenoceptor; format: functional
[2] = target: Sodium-dependent serotonin transporter (Homo sapiens, UniProt P31645); assay: In vitro binding affinity towards human serotonin transporter
Sodium-dependent serotonin transporter, sequence (P31645 whole entry): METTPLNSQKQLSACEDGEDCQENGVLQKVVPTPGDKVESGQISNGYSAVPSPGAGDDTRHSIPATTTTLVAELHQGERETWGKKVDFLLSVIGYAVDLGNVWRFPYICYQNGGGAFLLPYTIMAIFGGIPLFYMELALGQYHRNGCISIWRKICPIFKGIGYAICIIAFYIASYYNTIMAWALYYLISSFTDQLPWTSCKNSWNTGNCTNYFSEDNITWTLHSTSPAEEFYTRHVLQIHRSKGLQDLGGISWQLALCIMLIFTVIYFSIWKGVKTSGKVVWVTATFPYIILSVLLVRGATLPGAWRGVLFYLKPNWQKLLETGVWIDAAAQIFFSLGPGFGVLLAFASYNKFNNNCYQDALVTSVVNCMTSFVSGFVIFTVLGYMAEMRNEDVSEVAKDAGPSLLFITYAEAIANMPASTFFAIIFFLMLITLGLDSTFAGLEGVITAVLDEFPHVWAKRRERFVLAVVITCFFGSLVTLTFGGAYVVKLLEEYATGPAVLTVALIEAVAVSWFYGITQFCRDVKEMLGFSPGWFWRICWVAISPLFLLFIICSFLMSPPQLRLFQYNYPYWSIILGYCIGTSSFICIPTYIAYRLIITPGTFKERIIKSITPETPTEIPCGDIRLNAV

[3] = target: T1, Alpha-2A adrenergic receptor (Homo sapiens, UniProt P08913); assay: In vitro binding affinity to the human alpha-2A adrenergic receptor
T1 sequence (P08913 whole entry): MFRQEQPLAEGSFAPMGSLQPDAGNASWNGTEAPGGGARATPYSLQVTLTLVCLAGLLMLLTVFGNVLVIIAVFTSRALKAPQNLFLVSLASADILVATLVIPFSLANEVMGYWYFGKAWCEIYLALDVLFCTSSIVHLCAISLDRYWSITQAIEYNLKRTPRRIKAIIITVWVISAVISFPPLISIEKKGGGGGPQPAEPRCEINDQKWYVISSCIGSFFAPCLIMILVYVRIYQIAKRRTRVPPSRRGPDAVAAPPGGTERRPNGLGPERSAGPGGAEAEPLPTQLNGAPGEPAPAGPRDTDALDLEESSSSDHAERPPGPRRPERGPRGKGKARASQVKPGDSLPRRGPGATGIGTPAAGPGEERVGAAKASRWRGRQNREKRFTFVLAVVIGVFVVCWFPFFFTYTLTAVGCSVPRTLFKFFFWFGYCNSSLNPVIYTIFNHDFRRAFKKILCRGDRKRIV

[4] = target: T2, Alpha-2C adrenergic receptor (Homo sapiens, UniProt P18825); assay: In vitro binding affinity to human alpha-2C adrenergic receptor
T2 sequence (P18825 whole entry): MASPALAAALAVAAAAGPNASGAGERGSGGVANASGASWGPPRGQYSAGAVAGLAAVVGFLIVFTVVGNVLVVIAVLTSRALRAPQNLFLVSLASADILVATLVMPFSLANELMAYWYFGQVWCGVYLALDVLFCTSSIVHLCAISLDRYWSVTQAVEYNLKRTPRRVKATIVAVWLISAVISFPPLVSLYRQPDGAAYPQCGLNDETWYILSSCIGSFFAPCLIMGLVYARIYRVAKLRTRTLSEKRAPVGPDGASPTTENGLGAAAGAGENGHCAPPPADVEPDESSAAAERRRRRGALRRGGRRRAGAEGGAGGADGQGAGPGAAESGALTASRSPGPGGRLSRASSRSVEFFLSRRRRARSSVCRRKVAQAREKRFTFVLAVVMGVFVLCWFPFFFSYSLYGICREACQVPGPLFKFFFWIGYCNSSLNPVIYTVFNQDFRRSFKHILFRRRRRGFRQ

SMILES | ED50 [1] | Ki [2] | Ki [3] | Ki [4]
COc1cc2c(cc1OC)C1=NO[C@@H](CN3CCN(C/C=C(\C)c4ccccc4)CC3)[C@@H]1CO2 | 0.3 mg/kg | 4.5 nM | – | –
COc1cc2c(cc1OC)C1=NO[C@@H](CN3CCN(C/C=C\c4ccccc4)CC3)[C@@H]1CO2 | > 10 mg/kg | 35 nM | – | –
COc1cc2c(cc1OC)C1=NO[C@@H](CN3CCN(C/C(C)=C/c4cccc(F)c4F)CC3)[C@@H]1CO2 | 10 mg/kg | – | 3 nM | 0.7 nM
COc1cc2c(cc1OC)C1=NO[C@@H](CN3CCN(C/C=C(\C)c4ccc(O)cc4)CC3)[C@@H]1CO2 | > 2.5 mg/kg | 7.6 nM | 1.9 nM | 0.6 nM
COc1cc2c(cc1OC)C1=NO[C@@H](CN3CCN(C/C(C)=C/c4cccs4)CC3)[C@@H]1CO2 | 0.63 mg/kg | 2.7 nM | 1.7 nM | 0.2 nM
COc1cc2c(cc1OC)C1=NO[C@@H](CN3CCN(C/C=C(\C)c4ccsc4)CC3)[C@@H]1CO2 | 1.25 mg/kg | 4.8 nM | 1.4 nM | 0.3 nM
COc1cc2c(cc1OC)C1=NO[C@@H](CN3CCN(C/C=C/c4ccc(F)cc4)CC3)[C@@H]1CO2 | 4.7 mg/kg | 5.6 nM | 9 nM | 23 nM
COc1cc2c(cc1OC)C1=NO[C@@H](CN3CCN(C/C(C)=C/c4ccccc4)CC3)[C@@H]1CO2 | 1.3 mg/kg | – | – | 0.2 nM
COc1cc2c(cc1OC)C1=NO[C@@H](CN3CCN(C/C=C/c4ccc(Cl)cc4)CC3)[C@@H]1CO2 | 10 mg/kg | 1.3 nM | 69 nM | 10 nM
COc1cc2c(cc1OC)C1=NO[C@@H](CN3CCN(C/C=C/c4cccc(F)c4)CC3)[C@@H]1CO2 | 5 mg/kg | 2.5 nM | 5.9 nM | 0.7 nM
COc1cc2c(cc1OC)C1=NO[C@@H](CN3CCN(C/C=C(\C)c4ccc(F)cc4F)CC3)[C@@H]1CO2 | > 2.5 mg/kg | 5.4 nM | 9.3 nM | 0.8 nM
COc1ccccc1/C=C(\C)CN1CCN(C[C@@H]2ON=C3c4cc(OC)c(OC)cc4OC[C@H]32)CC1 | 2 mg/kg | – | 1 nM | 0.4 nM
COc1cc2c(cc1OC)C1=NO[C@@H](CN3CCN(C/C=C/c4ccccc4F)CC3)[C@@H]1CO2 | 2.5 mg/kg | 13 nM | 2.9 nM | 2.8 nM
COc1cc2c(cc1OC)C1=NO[C@@H](CN3CCN(C/C=C(\C)c4cccs4)CC3)[C@@H]1CO2 | 0.63 mg/kg | 74 nM | 0.3 nM | 0.2 nM
COc1cc2c(cc1OC)C1=NO[C@@H](CN3CCN(C/C(C)=C/c4ccsc4)CC3)[C@@H]1CO2 | 1.25 mg/kg | 1.9 nM | 1.1 nM | 0.2 nM
COc1cc2c(cc1OC)C1=NO[C@@H](CN3CCN(C/C=C/c4ccccc4)CC3)[C@@H]1CO2 | – | 8.3 nM | – | –
COc1cc2c(cc1OC)C1=NO[C@@H](CN3CCN(C/C(C)=C/c4cc(F)ccc4F)CC3)[C@@H]1CO2 | 2.5 mg/kg | – | 0.3 nM | 0.2 nM
COc1cc2c(cc1OC)C1=NO[C@@H](CN3CCN(C/C(C)=C/c4cccnc4)CC3)[C@@H]1CO2 | 3.1 mg/kg | 63 nM | 22 nM | 2.1 nM
COc1cc2c(cc1OC)C1=NO[C@@H](CN3CCN(C/C(C)=C/c4ccco4)CC3)[C@@H]1CO2 | 5 mg/kg | 21 nM | 1.7 nM | 0.5 nM
COc1cc2c(cc1OC)C1=NO[C@@H](CN3CCN(C/C=C(\C)c4ccc(F)cc4)CC3)[C@@H]1CO2 | 1.25 mg/kg | 1.3 nM | 2.9 nM | 0.3 nM
COc1cc2c(cc1OC)C1=NO[C@@H](CN3CCN(C/C(C)=C/c4cccc(F)c4)CC3)[C@@H]1CO2 | 0.63 mg/kg | – | 1.1 nM | 0.2 nM
COc1cc2c(cc1OC)C1=NO[C@@H](CN3CCN(C/C=C(\C)c4ccccc4OC)CC3)[C@@H]1CO2 | > 2.5 mg/kg | 51 nM | 5.2 nM | 0.9 nM
COc1cc2c(cc1OC)C1=NO[C@@H](CN3CCN(C/C=C(\C)c4ccco4)CC3)[C@@H]1CO2 | 0.16 mg/kg | 22 nM | 0.5 nM | 0.4 nM
COc1cc2c(cc1OC)C1=NO[C@@H](CN3CCN(C/C(C)=C/c4ccc(F)cc4)CC3)[C@@H]1CO2 | 10 mg/kg | – | 3.4 nM | 0.7 nM
